From the supplement of paper PMC10883282 come the findings set out here.

The test has as its system G401. The experiment in a line: relative viability vs DMSO control (72 h) (fraction); higher = more viable cells. Summed up:
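Sarcoma cell lines were seeded in 384-well plates at densities chosen for 80–90% confluence, then 24 h later given 2.5 µl of serially diluted compound drawn from source plates spanning 10 mM to 0.0002 mM. They were held 72 h at 37 °C, 5% CO2, with 0.1% DMSO vehicle and a 5 µM positive control included. Relative viability was read with ATPLite as percent growth and averaged over up to triplicate wells. Rescaling placed full at 1 and none at 0.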

Structures are written as SMILES. ± gives the standard deviation of the averaged measurements.

With `C=CC(=O)Nc1cccc(Oc2nc(Nc3ccc(N4CCN(C)CC4)cc3)nc3ccsc23)c1` [Olmutinib], the relative viability reads like this: (0.00017 µM) 0.984 ± 0.021; (0.00051 µM) 0.976 ± 0.048; (0.00152 µM) 0.969 ± 0.022; (0.00457 µM) 0.984 ± 0.039; (0.01372 µM) 0.96 ± 0.03; (0.04115 µM) 0.986 ± 0.043. Besides, the relative viability reads like this: (0.1235 µM) 1 ± 0.041; (0.3704 µM) 1.01 ± 0.043; (1.111 µM) 0.916 ± 0.018; (3.333 µM) 0.759 ± 0.019; (10 µM) 0.481 ± 0.036.
Take `CNC(=O)c1cc(Oc2ccc(NC(=O)Nc3ccc(Cl)c(C(F)(F)F)c3)c(F)c2)ccn1` [Regorafenib]: the relative viability was found to be 1.05 ± 0.058 (0.00017 µM); 1.06 ± 0.077 (0.00051 µM); 1.09 ± 0.071 (0.00152 µM); 1.07 ± 0.025 (0.00457 µM); 1.07 ± 0.032 (0.01372 µM); 1.07 ± 0.071 (0.04115 µM). The relative viability runs as follows: (0.1235 µM) 1.02 ± 0.058; (0.3704 µM) 0.888 ± 0.088; (1.111 µM) 0.821 ± 0.056; (3.333 µM) 0.609 ± 0.062; (10 µM) 0.431 ± 0.029.
With `COc1cc2c(cc1O)CCN[C@]21CS[C@@H]2c3c(OC(C)=O)c(C)c4c(c3[C@H](COC1=O)N1[C@@H]2[C@H]2c3c(cc(C)c(OC)c3O)C[C@@H]([C@@H]1O)N2C)OCO4` [Trabectedin], the relative viability reads like this: (2 pM) 1.03 ± 0.017; (5 pM) 1.02 ± 0.025; (15 pM) 0.993 ± 0.018; (50 pM) 0.991 ± 0.014; (0.00014 µM) 0.832 ± 0.043; (0.00041 µM) 0.516 ± 0.024. Further, the relative viability (0.0012 µM) was determined as 0.0964 ± 0.077; the relative viability (0.0037 µM) amounted to 0.126 ± 0.016; the relative viability (0.011 µM) was 0.0862 ± 0.0056; the relative viability (200 fM) is 1.05 ± 0.032; the relative viability (600 fM) was 1.03 ± 0.04.
